According to patent publication US20040176393A1, “Statin-MMP inhibitor combinations” (priority 1998, published 2004):
pIC50: −log10 of the molar value.

How the values were obtained:
Assay type in all cases: biochemical
MMP-3 (stromelysin) = MMP-3 (stromelysin) (Homo sapiens, UniProt P08254); assay: thiopeptolide substrate hydrolysis assay, MMP-3; settings: inhibition of hydrolytic activity of the enzyme, read-out: IC50 MMP3
Protocol: (§1) The assays measure the amount by which a test compound reduces the hydrolysis of a thiopeptolide substrate caused by a matrix metalloproteinase enzyme.
(§2) Thiopeptolide substrates show virtually no decomposition or hydrolysis in the absence of a matrix metalloproteinase enzyme. A typical thiopeptolide substrate commonly utilized for assays is Ac-Pro-Leu-Gly-thioester-Leu-Leu-Gly-OEt. […] Assays are carried out with and without matrix metalloproteinase inhibitor compounds, and the amount of hydrolysis is compared for a determination of inhibitory activity of the test compounds.

MMP-2 (Gelatinase A) = target: T1, MMP-2 (Gelatinase A) (Homo sapiens, UniProt P08253); assay: thiopeptolide substrate hydrolysis assay, MMP-2; settings: inhibition of hydrolytic activity of the enzyme, read-out: IC50 MMP2
T1 sequence (P08253 110-660): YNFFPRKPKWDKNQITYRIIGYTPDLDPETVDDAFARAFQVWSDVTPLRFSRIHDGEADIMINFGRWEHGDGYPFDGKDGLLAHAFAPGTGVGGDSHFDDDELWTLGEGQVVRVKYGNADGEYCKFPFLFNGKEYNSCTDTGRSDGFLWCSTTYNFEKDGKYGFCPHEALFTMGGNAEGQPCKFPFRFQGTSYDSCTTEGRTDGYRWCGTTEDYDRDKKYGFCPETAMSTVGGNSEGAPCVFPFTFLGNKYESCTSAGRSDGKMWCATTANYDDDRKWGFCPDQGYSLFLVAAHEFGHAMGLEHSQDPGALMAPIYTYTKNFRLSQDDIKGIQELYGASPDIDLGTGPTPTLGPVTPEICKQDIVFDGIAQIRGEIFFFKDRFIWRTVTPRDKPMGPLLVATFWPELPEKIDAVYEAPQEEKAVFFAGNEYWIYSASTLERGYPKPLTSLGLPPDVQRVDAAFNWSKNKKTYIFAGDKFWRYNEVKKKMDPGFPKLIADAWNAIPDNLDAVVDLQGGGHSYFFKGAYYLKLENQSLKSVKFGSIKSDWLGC
Protocol: as §1, §2

[1] = target: T2, MMP-1 (interstitial collagenase) (Homo sapiens, UniProt P03956); assay: thiopeptolide substrate hydrolysis assay, MMP-1; settings: inhibition of hydrolytic activity of the enzyme, read-out: IC50 MMP1
T2 sequence (P03956 100-469): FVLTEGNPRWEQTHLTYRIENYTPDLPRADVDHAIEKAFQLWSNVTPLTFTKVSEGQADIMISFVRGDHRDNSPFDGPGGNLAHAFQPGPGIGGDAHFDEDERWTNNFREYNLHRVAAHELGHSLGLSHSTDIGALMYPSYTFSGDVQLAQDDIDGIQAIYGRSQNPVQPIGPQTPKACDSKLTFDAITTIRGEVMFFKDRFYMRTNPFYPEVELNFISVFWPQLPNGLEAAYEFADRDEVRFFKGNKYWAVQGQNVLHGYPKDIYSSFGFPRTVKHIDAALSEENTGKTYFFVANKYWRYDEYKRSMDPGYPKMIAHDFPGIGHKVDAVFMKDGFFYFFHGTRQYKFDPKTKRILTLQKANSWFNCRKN
Protocol: as §1, §2

MMP-3 (stromelysin), sequence (P08254 100-477, species assumed): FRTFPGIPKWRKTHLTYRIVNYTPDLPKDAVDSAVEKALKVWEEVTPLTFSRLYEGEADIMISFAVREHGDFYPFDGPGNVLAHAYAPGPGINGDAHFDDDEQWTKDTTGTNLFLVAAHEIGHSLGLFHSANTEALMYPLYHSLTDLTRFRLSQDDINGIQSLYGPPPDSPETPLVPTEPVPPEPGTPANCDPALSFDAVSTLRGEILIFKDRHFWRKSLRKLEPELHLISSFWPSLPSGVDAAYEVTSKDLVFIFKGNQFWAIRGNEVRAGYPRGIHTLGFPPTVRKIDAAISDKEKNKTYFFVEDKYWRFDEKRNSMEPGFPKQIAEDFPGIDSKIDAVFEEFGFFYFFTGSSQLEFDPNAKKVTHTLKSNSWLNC

**Q.** How did the pIC50 (MMP-3 (stromelysin)) turn out when `O=C(O)CCC(O)c1ccc(-c2ccc(Cl)cc2)cc1` (racemic) [(±)-4-(4′-Chloro-biphenyl-4-yl)-4-hydroxy-butyric acid] was run?
**A.** Its pIC50 is 6.55.

**Q.** And the pIC50 (MMP-2 (Gelatinase A))?
**A.** The pIC50 was 6.82.

**Q.** How did the pIC50 (MMP-3 (stromelysin)) turn out when `O=C(O)CCC(=NO)c1ccc(-c2ccc(Br)cc2)cc1` [4-(4′-Bromo-biphenyl-4-yl)-4-hydroxyimino-butyric acid] was run?
**A.** Its pIC50 is 6.96.

**Q.** And the pIC50 (MMP-2 (Gelatinase A))?
**A.** The pIC50 was 7.24.

**Q.** Which results are given for `CN(C)N=C(CCC(=O)O)c1ccc(-c2ccc(Cl)cc2)cc1` [4-(4′-Chloro-biphenyl-4-yl)-4-(dimethylhydrazono)-butyric acid]?
**A.** pIC50 (MMP-3 (stromelysin)): 6.03; pIC50 (MMP-2 (Gelatinase A)): 6.14

**Q.** How did the pIC50 (MMP-3 (stromelysin)) turn out when `O=C(O)CCC(=NO)c1ccc(-c2ccc(Cl)cc2)cc1` [4-(4′-Chloro-biphenyl-4-yl)-4-hydroxyimino-butyric acid] was run?
**A.** Its pIC50 is 6.92.

**Q.** What about the pIC50 (MMP-2 (Gelatinase A)) of the same compound?
**A.** Its pIC50 is 6.41.

**Q.** `O=C(O)CCC(=O)c1ccc(N2CCN(c3ccccc3)CC2)cc1` [4-Oxo-4-[4-(4-phenyl-piperazin-1-yl)-phenyl]-butyric acid] was tested. Which pIC50 (MMP-3 (stromelysin)) did it give?
**A.** Its pIC50 is 6.60.

**Q.** And the pIC50 (MMP-2 (Gelatinase A))?
**A.** The pIC50 was 5.80.

**Q.** `O=C(O)CCC(=O)c1ccc(N2CCC(c3ccccc3)CC2)cc1` [4-Oxo-4-[4-(4-phenyl-piperidin-1-yl)-phenyl]-butyric acid] was tested. Which pIC50 (MMP-3 (stromelysin)) did it give?
**A.** The pIC50 was 6.85.

**Q.** What about the pIC50 (MMP-2 (Gelatinase A)) of the same compound?
**A.** The pIC50 was 5.89.

**Q.** What does the source list for `O=C(O)[C@H](CS)NS(=O)(=O)c1ccc2oc3ccccc3c2c1` [(L)-2-(Dibenzofuran-2-sulfonylamino)-3-mercapto-propionic acid]?
**A.** pIC50 (MMP-3 (stromelysin)): 6.16; pIC50 (MMP-2 (Gelatinase A)): 5.35

**Q.** `CC(C)[C@H](NS(=O)(=O)c1ccc2oc3ccccc3c2c1)C(=O)O` [(L)-2-(Dibenzofuran-2-sulfonylamino)-3-methyl-butyric acid] was tested. Which pIC50 (MMP-3 (stromelysin)) did it give?
**A.** The pIC50 was 6.64.

**Q.** What about the pIC50 (MMP-2 (Gelatinase A)) of the same compound?
**A.** The pIC50 was 7.08.

**Q.** `O=C(O)[C@H](Cc1ccccc1)NS(=O)(=O)c1ccc2oc3ccccc3c2c1` [(L)-2-(Dibenzofuran-2-sulfonylamino)-3-phenyl-propionic acid] was tested. Which pIC50 (MMP-3 (stromelysin)) did it give?
**A.** The pIC50 was 6.14.

**Q.** And the pIC50 (MMP-2 (Gelatinase A))?
**A.** The pIC50 was 6.05.

**Q.** Which results are given for `O=C(O)[C@H](CSC(c1ccccc1)(c1ccccc1)c1ccccc1)NS(=O)(=O)c1ccc2oc3ccccc3c2c1` [(L)-2-(Dibenzofuran-2-sulfonylamino)-3-tritylsulfanyl-propionic acid]?
**A.** pIC50 (MMP-3 (stromelysin)): 4.84; pIC50 (MMP-2 (Gelatinase A)): 5.03

**Q.** Which results are given for `CC(C)C[C@H](NS(=O)(=O)c1ccc2oc3ccccc3c2c1)C(=O)O` [(L)-2-(Dibenzofuran-2-sulfonylamino)-4-methyl-pentanoic acid]?
**A.** pIC50 (MMP-3 (stromelysin)): 5.93; pIC50 (MMP-2 (Gelatinase A)): 6.49

**Q.** `O=C(O)[C@H](Cc1ccccc1)NS(=O)(=O)c1ccc(-c2ccc(Br)cc2)cc1` [(S)-2-(4′-Bromo-biphenyl-4-sulfonylamino)-3-phenyl-propionic acid] was tested. Which pIC50 (MMP-2 (Gelatinase A)) did it give?
**A.** Its pIC50 is 7.59.

**Q.** What does the source list for `O=C(O)[C@H](CCc1ccccc1)NS(=O)(=O)c1ccc2oc3ccccc3c2c1` [(S)-2-(Dibenzofuran-2-sulfonylamino)-4-phenyl-butyric acid]?
**A.** pIC50 (MMP-3 (stromelysin)): 6.34; pIC50 (MMP-2 (Gelatinase A)): 6.58

**Q.** What does the source list for `CC(=O)N[C@@H](CC(=O)c1ccc2oc3ccccc3c2c1)C(=O)O` [(S)-2-Acetylamino-4-dibenzofuran-2-yl-4-oxo-butyric acid]?
**A.** pIC50 (MMP-3 (stromelysin)): 5.81; pIC50 (MMP-2 (Gelatinase A)): 6.80

**Q.** Which results are given for `N[C@@H](CC(=O)c1ccc2oc3ccccc3c2c1)C(=O)O` [(S)-2-Amino-4-dibenzofuran-2-yl-4-oxo-butyric acid]?
**A.** pIC50 (MMP-3 (stromelysin)): 4.48; pIC50 (MMP-2 (Gelatinase A)): 5.42

**Q.** Which results are given for `O=C(O)[C@H](Cc1ccccc1)NS(=O)(=O)c1ccc(N2CCC(Cc3ccccc3)CC2)cc1` [(S)-2-[4-(4-Benzyl-piperidin-1-yl)-benzenesulfonyl-amino]-3-phenyl-propionic acid]?
**A.** pIC50 (MMP-3 (stromelysin)): 7.68; pIC50 (MMP-2 (Gelatinase A)): 7.06

**Q.** With `COc1ccc(N2CCN(c3ccc(S(=O)(=O)N[C@@H](Cc4ccccc4)C(=O)O)cc3)CC2)cc1` [(S)-2-{4-[-4-(4-Methoxy-phenyl)-piperazin-1-yl]-benzenesulfonylamino}-3-phenyl-propionic acid] as the compound, how does the pIC50 (MMP-3 (stromelysin)) read?
**A.** The pIC50 was 7.85.

**Q.** What about the pIC50 (MMP-2 (Gelatinase A)) of the same compound?
**A.** Its pIC50 is 7.48.

**Q.** With `CC(C)[C@H](NS(=O)(=O)c1ccc(-c2ccc([N+](=O)[O-])cc2)cc1)C(=O)O` [(S)-3-Methyl-2-(4′-nitro-biphenyl-4-sulfonylamino)-butyric acid] as the compound, how does the pIC50 (MMP-3 (stromelysin)) read?
**A.** The pIC50 was 7.00.

**Q.** Which results are given for `O=C(O)[C@H](Cc1ccccc1)NS(=O)(=O)c1ccc(N2CCC(c3ccccc3)CC2)cc1` [(S)-3-Phenyl-2-[4-(4-phenyl-piperidin-1-yl)-benzene-sulfonylamino]-propionic acid]?
**A.** pIC50 (MMP-3 (stromelysin)): 7.85; pIC50 (MMP-2 (Gelatinase A)): 6.66

**Q.** What does the source list for `O=C(C[C@H](NC(=O)C(F)(F)F)C(=O)O)c1ccc2oc3ccccc3c2c1` [(S)-4-Dibenzofuran-2-yl-4-oxo-2-(2,2,2-trifluoroacetylamino)-butyric acid]?
**A.** pIC50 (MMP-3 (stromelysin)): 5.88; pIC50 (MMP-2 (Gelatinase A)): 6.14

**Q.** How did the pIC50 (MMP-3 (stromelysin)) turn out when `O=C(CCc1ccccc1)N[C@@H](CC(=O)c1ccc2oc3ccccc3c2c1)C(=O)O` [(S)-4-Dibenzofuran-2-yl-4-oxo-2-(3-phenyl-propionylamino)-butyric acid] was run?
**A.** The pIC50 was 6.55.

**Q.** What about the pIC50 (MMP-2 (Gelatinase A)) of the same compound?
**A.** The pIC50 was 7.02.

**Q.** How did the pIC50 (MMP-3 (stromelysin)) turn out when `O=C(Cc1ccccc1)N[C@@H](CC(=O)c1ccc2oc3ccccc3c2c1)C(=O)O` [(S)-4-Dibenzofuran-2-yl-4-oxo-2-phenylacetylamino-butyric acid] was run?
**A.** Its pIC50 is 6.48.

**Q.** What about the pIC50 (MMP-2 (Gelatinase A)) of the same compound?
**A.** Its pIC50 is 7.08.

**Q.** With `O=C(CNS(=O)(=O)c1ccc(N2CCC(c3ccccc3)CC2)cc1)NO` [N-Hydroxy-2-[4-(4-phenyl-piperidin-1-yl)-benzene-sulfonylamino]-acetamide] as the compound, how does the pIC50 (MMP-3 (stromelysin)) read?
**A.** Its pIC50 is 7.72.

**Q.** And the pIC50 (MMP-2 (Gelatinase A))?
**A.** Its pIC50 is 6.09.

**Q.** With `O=C(CCC(=O)c1ccc(N2CCC(c3ccccc3)CC2)cc1)NO` [N-Hydroxy-4-oxo-4-[4-(4-phenyl-piperidin-1-yl)-phenyl]-butyramide] as the compound, how does the pIC50 (MMP-3 (stromelysin)) read?
**A.** Its pIC50 is 7.70.

**Q.** What about the pIC50 (MMP-2 (Gelatinase A)) of the same compound?
**A.** The pIC50 was 7.40.

**Q.** What does the source list for `CNC(=O)[C@@H](NC(=O)[C@@H](CC(=O)NO)CC(C)C)C(C)(C)C` [RO-31-9790, reference compound]?
**A.** pIC50 (MMP-3 (stromelysin)): 6.33; pIC50 [1]: 8.26; pIC50 (MMP-2 (Gelatinase A)): 8.22

**Q.** With `CC(C)CC(CC(=O)NO)C(=O)N[C@@H](CC(C)C)C(=O)N[C@@H](Cc1ccccc1)C(N)=O` (stereo partly shown) [U24522, reference compound] as the compound, how does the pIC50 (MMP-3 (stromelysin)) read?
**A.** Its pIC50 is 7.70.

**Q.** How did the pIC50 (MMP-3 (stromelysin)) turn out when `O=C(O)CNS(=O)(=O)c1ccc(N2CCC(c3ccccc3)CC2)cc1` [[4-(4-Phenyl-piperidin-1-yl)-benzenesulfonylamino]-acetic acid] was run?
**A.** Its pIC50 is 7.70.

**Q.** And the pIC50 (MMP-2 (Gelatinase A))?
**A.** The pIC50 was 6.68.
